Results on 15 compounds are retold here after patent US9249102B2 (priority 2012, dated 2016).

In data set [1] the test system is Haemonchus contortus. Nature of the data set: Method A: Haemonchus contortus L1 larvae, microtitre plate screen. The settings on record: 96 h, read-out: motility inhibition.
A further data set concerns Cooperia oncophora. Nature of the data set: Method C: Cooperia oncophora L1 larvae in vitro. The note with it: 96 h, read-out: inhibition of motility.
Data set [2] concerns Haemonchus contortus. Put plainly: Method D: Haemonchus contortus in vivo in Mongolian jirds. Also noted: species or system Mongolian jirds (Meriones unguiculatus). The note with it: po, 72 h, read-out: reduction in nematode infestation.
Data set [3] concerns microfilaria of Dirofilaria immitis. Put plainly: Method F: microfilaria of Dirofilaria immitis, survival at 24 hours.
Data set [4] is described as follows: Method G: permeability in the Caco-2/TC7 in vitro model. The settings on record: human, Caco-2, pH 6.5.
The mark [5] stands for this setting: survival of microfilaria at 24 hours.

What is called inhibition is the share of the control response that was lost under treatment. A word on the EC50: it is the concentration giving half of the maximal effect. What is called Papp A→B is the apparent permeability from the apical to the basolateral side of a cell layer. Read a high Papp A→B as fast passage.

Where two headings read alike, the source gives them in different places.

As for `O=C(CO[C@H]1CC[C@H](Nc2ccc([N+](=O)[O-])c(C(F)(F)F)c2)CC1)N1CCN(Cc2cc3cc(C(F)(F)F)ccc3o2)CC1` [Compound 180, 2-[(4-[[4-nitro-3-(trifluoromethyl)phenyl]amino]cyclohexyl)oxy]-1-(4-[[5-(trifluoromethyl)-1-benzofuran-2-yl]methyl]piperazin-1-yl)ethan-1-one], the inhibition at 5 µg/mL in the data set with Haemonchus contortus [1] and in the data set with Cooperia oncophora was ≥ 90% each time. Moreover, in the data set with Haemonchus contortus [2], the inhibition in vivo at 30 mg/kg is > 90%. Besides, in data set [3] (setting [5]), the EC50 was < 1 µg/mL.
With `N#Cc1ccc(N[C@H]2CC[C@H](OCC(=O)N3CCN(c4ccc5cc(Cl)ccc5n4)CC3)CC2)cc1C(F)(F)F` [Compound 272, 2-[(4-[[4-cyano-3-(trifluoromethyl)phenyl]amino]cyclohexyl)oxy]-1-[4-(6-chloroquinolin-2-yl)piperazin-1-yl]ethan-1-one], the inhibition at 5 µg/mL with Haemonchus contortus [1] and with Cooperia oncophora was ≥ 90% throughout. In addition, the inhibition in vivo at 30 mg/kg in the data set on Haemonchus contortus [2] was in the range of 70 to 90%. Moreover, the EC50 in data set [3] (setting [5]) was < 1 µg/mL.
For `O=C(CO[C@H]1CC[C@H](Nc2ccc([N+](=O)[O-])c(C(F)(F)F)c2)CC1)N1CCN(Cc2cc3cc(F)c(F)cc3o2)CC1` [Compound 325, 2-[(4-[[4-nitro-3-(trifluoromethyl)phenyl]amino]cyclohexyl)-oxy]1-[4-(5,6-difluorobenzofuran-2-ylmethyl)piperazin-1-yl]ethan-1-one], the Papp A→B at 20 μM in data set [4] was 9 ×10⁻⁶ cm/s. The inhibition at 5 µg/mL with Haemonchus contortus [1] and with Cooperia oncophora was ≥ 90% each time. In addition, the inhibition in vivo at 30 mg/kg in the data set with Haemonchus contortus [2] is 70 to 90%.
Take `O=C(CO[C@H]1CC[C@H](Nc2ccc([N+](=O)[O-])c(C(F)(F)F)c2)CC1)N1CCN(Cc2nc3cc(C(F)(F)F)ccc3s2)CC1` [Compound 302, 2-[4-[4-nitro-3-(trifluoromethyl)anilino]cyclohexoxy]-1-[4-[[5-(trifluoromethyl)-1,3-benzothiazol-2-yl]methyl]piperazin-1-yl]ethanone]: the inhibition at 5 µg/mL with Haemonchus contortus [1] and in the data set with Cooperia oncophora was ≥ 90% each time. Moreover, the inhibition in vivo at 30 mg/kg in the data set on Haemonchus contortus [2] is > 90%. The EC50 in data set [3] (setting [5]) is < 0.1 µg/mL.
Consider `N#Cc1ccc(N[C@H]2CC[C@H](OCC(=O)N3CCN(c4ccc5cc(Cl)ccc5c4)CC3)CC2)cc1C(F)(F)F` [Compound 278], for which the inhibition at 5 µg/mL in the data set on Haemonchus contortus [1] and in the data set with Cooperia oncophora was ≥ 90% in each case. Besides, the inhibition in vivo at 30 mg/kg in the data set with Haemonchus contortus [2] (in Meriones unguiculatus) was 70 to 90%. The EC50 in data set [3] (setting [5]) was < 1 µg/mL.
For the compound `O=C(CO[C@H]1CC[C@H](Nc2ccc([N+](=O)[O-])c(C(F)(F)F)c2)CC1)N1CCN(Cc2cnc3cc(C(F)(F)F)ccc3c2)CC1` [Compound 327, 2-[4-(4-nitro-3-trifluoromethyl-phenylamino)-cyclohexyloxy]-1-[4-(7-trifluoromethyl-quinolin-3-ylmethyl)-piperazin-1-yl]-ethanone], the Papp A→B at 20 μM in data set [4] is 6.9 ×10⁻⁶ cm/s. For the same compound, the inhibition at 5 µg/mL with Haemonchus contortus [1] was ≥ 90%. The inhibition in vivo at 30 mg/kg in the data set on Haemonchus contortus [2] lay within 70 to 90%.
In the case of `O=C(CO[C@H]1CC[C@H](Nc2ccc([N+](=O)[O-])c(C(F)(F)F)c2)CC1)N1CCN(CC2Cc3cc(F)ccc3O2)CC1` (stereo partly drawn) [Compound 77], the inhibition at 5 µg/mL in the data set with Haemonchus contortus [1] and in the data set with Cooperia oncophora was ≥ 90% each time. In the data set with Haemonchus contortus [2], the inhibition in vivo at 30 mg/kg was > 90%. In addition, in data set [3] (setting [5]), the EC50 is < 5 µg/mL.
As to `CN(c1ccc(C#N)c(C(F)(F)F)c1)[C@H]1CC[C@H](OCC(=O)N2CCN(c3ccc4cc(C(F)(F)F)ccc4n3)CC2)CC1` [Compound 283, 2-[(4-[methyl[4-cyano-3-(trifluoromethyl)phenyl]amino]cyclohexyl)-oxy]1-[4-[6-(trifluoromethyl)quinolin-2-yl]-piperazin-1-yl]ethan-1-one], the inhibition at 5 µg/mL in the data set with Haemonchus contortus [1] and with Cooperia oncophora was ≥ 90% throughout. In the data set on Haemonchus contortus [2], the inhibition in vivo at 30 mg/kg is > 90%.
Consider `O=C(CO[C@H]1CC[C@H](Nc2ccc([N+](=O)[O-])c(C(F)(F)F)c2)CC1)N1CCN(c2ccc3cc(C(F)(F)F)ccc3n2)CC1` [Compound 89, 2-[(4-[[4-nitro-3-(trifluoromethyl)phenyl]amino]cyclohexyl)oxy]-1-[4-[6-(trifluoromethyl)quinolin-2-yl]piperazin-1-yl]ethan-1-one], for which the inhibition at 5 µg/mL in the data set with Haemonchus contortus [1] and with Cooperia oncophora was ≥ 90% in each case. Further, the inhibition in vivo at 30 mg/kg in the data set on Haemonchus contortus [2] is > 90%. Also, the EC50 in data set [3] (setting [5]) was < 5 µg/mL.
Take `O=C(CO[C@H]1CC[C@H](Nc2ccc([N+](=O)[O-])c(C(F)(F)F)c2)CC1)N1CCN(CC2Cc3cc(C(F)(F)F)ccc3O2)CC1` (stereo partly drawn) [Compound 78, 2-[(4-[[4-nitro-3-(trifluoromethyl)phenyl]amino]cyclohexyl)oxy]-1-(4-[[5-(trifluoromethyl)-2,3-dihydro-1-benzofuran-2-yl]methyl]piperazin-1-yl)ethan-1-one]: the inhibition at 5 µg/mL with Haemonchus contortus [1] and with Cooperia oncophora was ≥ 90% each time. The inhibition in vivo at 30 mg/kg in the data set with Haemonchus contortus [2] was > 90%. Further, the EC50 in data set [3] (setting [5]) is < 5 µg/mL.
Consider `N#Cc1ccc(N[C@H]2CC[C@H](OCC(=O)N3CCN(c4ccc5cc(C(F)(F)F)ccc5n4)CC3)CC2)cc1C(F)(F)F` [Compound 273, 2-[(4-[[4-cyano-3-(trifluoromethyl)phenyl]amino]cyclohexyl)oxy]-1-[4-[6-(trifluoromethyl)quinolin-2-yl]piperazin-1-yl]ethan-1-one], for which the inhibition at 5 µg/mL with Haemonchus contortus [1] and in the data set with Cooperia oncophora was ≥ 90% each time. For the same compound, in the data set on Haemonchus contortus [2], the inhibition in vivo at 30 mg/kg is > 90%. Also, the EC50 in data set [3] (setting [5]) was < 1 µg/mL.
For `O=C(CO[C@H]1CC[C@H](Nc2ccc([N+](=O)[O-])c(C(F)(F)F)c2)CC1)N1CCN(c2nc3cc(C(F)(F)F)ccc3s2)CC1` [Compound 342, 2-[4-(4-nitro-3-trifluoromethyl-phenylamino)-cyclohexyloxy]-1-[4-(5-trifluoromethyl-benzothiazol-2-yl)-piperazin-1-yl]-ethanone], the inhibition at 5 µg/mL in the data set on Haemonchus contortus [1] and in the data set on Cooperia oncophora was ≥ 90% in each case. For the same compound, the inhibition in vivo at 30 mg/kg in the data set on Haemonchus contortus [2] was > 90%.
`O=C(CO[C@H]1CC[C@H](Nc2ccc([N+](=O)[O-])c(C(F)(F)F)c2)CC1)N1CCN(Cc2ccc3cc(F)ccc3c2)CC1` [Compound 297, 2-[(4-[[4-nitro-3-(trifluoromethyl)phenyl]amino]cyclohexyl)-oxy]1-[4-(6-fluoronaphthalen-2-ylmethyl)piperazin-1-yl]ethan-1-one]: the Papp A→B at 20 μM in data set [4] was determined as 5.7 ×10⁻⁶ cm/s. For the same compound, the inhibition at 5 µg/mL in the data set on Haemonchus contortus [1] and in the data set with Cooperia oncophora was ≥ 90% throughout. Besides, the EC50 in data set [3] (setting [5]) is < 1 µg/mL.
In the case of `CN(c1ccc([N+](=O)[O-])c(C(F)(F)F)c1)[C@H]1CC[C@H](OCC(=O)N2CCN(c3ccc4cc(C(F)(F)F)ccc4n3)CC2)CC1` [Compound 245, 2-[[(1r,4r)-4-[methyl[4-nitro-3-(trifluoromethyl)phenyl]amino]cyclohexyl]oxy]-1-[4-[6-(trifluoromethyl)quinolin-2-yl]piperazin-1-yl]ethan-1-one], the inhibition at 5 µg/mL in the data set on Haemonchus contortus [1] and in the data set on Cooperia oncophora was ≥ 90% in each case. In addition, the inhibition in vivo at 30 mg/kg in the data set with Haemonchus contortus [2] is > 90%. Further, in data set [3], the EC50 is < 1 µg/mL.
In turn, `N#Cc1ccc(N[C@H]2CC[C@H](OCC(=O)N3CCN(Cc4nc5cc(C(F)(F)F)ccc5s4)CC3)CC2)cc1C(F)(F)F` [Compound 301] displayed a Papp A→B at 20 μM in data set [4] of 9.9 ×10⁻⁶ cm/s. In addition, the inhibition at 5 µg/mL with Haemonchus contortus [1] and in the data set with Cooperia oncophora was ≥ 90% throughout. In data set [3], the EC50 is < 0.1 µg/mL.
